Results from publication PMC4411097, “Pachymic Acid Inhibits Growth and Induces Apoptosis of Pancreatic Cancer In Vitro and In Vivo by Targeting ER Stress” (PLoS ONE, 2015).

Tested on: MIA PaCa-2 cells
Test: DNA microarray analysis (Affymetrix Human PrimeView);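 for Mean (MiaPaca-2 * PA): Log2-transformed RMA normalized probe set signal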
Assay type: cell-based
[1] = gene HNRNPM, probeset 11761514_at
[2] = gene IER5, probeset 11716629_at
[3] = gene IRAK2, probeset 11733240_at
[4] = gene LIF, probeset 11758619_s_at
[5] = gene LTB, probeset 11739657_a_at
[6] = gene MALAT1, probeset 11745723_a_at
[7] = gene MARS2, probeset 11729710_a_at
[8] = gene MARS2, probeset 11750890_a_at
[9] = gene MCL1, probeset 11715484_a_at
[10] = gene NAV3, probeset 11723147_a_at
[11] = gene NFKBIA, probeset 11745878_x_at
[12] = gene NFKBIA, probeset 11757894_x_at
[13] = gene PHLDA2, probeset 11744005_at
[14] = gene PLEKHG6, probeset 11733595_x_at
[15] = gene RPS4X, probeset 11761933_at
[16] = gene SAT1, probeset 11743036_s_at
[17] = gene SDC4, probeset 11717639_x_at
[18] = gene SDC4, probeset 11749921_a_at
[19] = gene SH3BP1, probeset 11728063_x_at
[20] = gene SLC3A2, probeset 11733071_a_at
[21] = gene SLC3A2, probeset 11741149_x_at
[22] = gene SLC3A2, probeset 11746697_a_at
[23] = gene SLC3A2, probeset 11753434_a_at
[24] = gene SLC16A6, probeset 11735090_s_at
[25] = gene SLC16A6, probeset 11754629_s_at
[26] = gene SMAGP, probeset 11719864_a_at

Question: Which results are given for `C=C(CC[C@@H](C(=O)O)[C@H]1[C@H](O)C[C@@]2(C)C3=C(CC[C@]12C)[C@@]1(C)CC[C@H](OC(C)=O)C(C)(C)[C@@H]1CC3)C(C)C` [PA, Pachymic acid]?
Answer: Fold-Change (MiaPaca-2 * PA vs. MiaPaca-2 * control) [1]: 1.65; Mean (MiaPaca-2 * PA) [1]: 9.69; Fold-Change (MiaPaca-2 * PA vs. MiaPaca-2 * control) (gene HNRNPM, probeset 11761516_x_at, MiaPaca-2): 1.50; Mean (MiaPaca-2 * PA) (gene HNRNPM, probeset 11761516_x_at, MiaPaca-2, PA-treated): 10.58; Fold-Change (MiaPaca-2 * PA vs. MiaPaca-2 * control) (gene HOOK1, probeset 11750347_a_at, MiaPaca-2): 1.50; Mean (MiaPaca-2 * PA) (gene HOOK1, probeset 11750347_a_at, MiaPaca-2, PA-treated): 3.97; Fold-Change (MiaPaca-2 * PA vs. MiaPaca-2 * control) [2]: 1.60; Mean (MiaPaca-2 * PA) [2]: 7.72; Fold-Change (MiaPaca-2 * PA vs. MiaPaca-2 * control) (gene IL12A, probeset 11756769_a_at, MiaPaca-2): 1.50; Mean (MiaPaca-2 * PA) (gene IL12A, probeset 11756769_a_at, MiaPaca-2, PA-treated): 5.04; Fold-Change (MiaPaca-2 * PA vs. MiaPaca-2 * control) [3]: 1.59; Mean (MiaPaca-2 * PA) [3]: 6.52; Fold-Change (MiaPaca-2 * PA vs. MiaPaca-2 * control) (gene KLHL29, probeset 11745365_at, MiaPaca-2): 1.51; Mean (MiaPaca-2 * PA) (gene KLHL29, probeset 11745365_at, MiaPaca-2, PA-treated): 5.04; Fold-Change (MiaPaca-2 * PA vs. MiaPaca-2 * control) (gene LIF, probeset 11726498_at): 1.55; Mean (MiaPaca-2 * PA) (gene LIF, probeset 11726498_at): 7.20; Fold-Change (MiaPaca-2 * PA vs. MiaPaca-2 * control) [4]: 1.55; Mean (MiaPaca-2 * PA) [4]: 9.50; Fold-Change (MiaPaca-2 * PA vs. MiaPaca-2 * control) (gene LRP8, probeset 11741376_a_at, MiaPaca-2): 1.53; Mean (MiaPaca-2 * PA) (gene LRP8, probeset 11741376_a_at, MiaPaca-2, PA-treated): 7.95; Fold-Change (MiaPaca-2 * PA vs. MiaPaca-2 * control) [5]: 1.54; Mean (MiaPaca-2 * PA) [5]: 6.97; Fold-Change (MiaPaca-2 * PA vs. MiaPaca-2 * control) (gene MAFF, probeset 11726611_x_at, MiaPaca-2): 1.50; Mean (MiaPaca-2 * PA) (gene MAFF, probeset 11726611_x_at, MiaPaca-2, PA-treated): 6.99; Fold-Change (MiaPaca-2 * PA vs. MiaPaca-2 * control) [6]: 1.55; Mean (MiaPaca-2 * PA) [6]: 9.40; Fold-Change (MiaPaca-2 * PA vs. MiaPaca-2 * control) [7]: 1.55; Mean (MiaPaca-2 * PA) [7]: 6.32; Fold-Change (MiaPaca-2 * PA vs. MiaPaca-2 * control) [8]: 1.61; Mean (MiaPaca-2 * PA) [8]: 6.51; Fold-Change (MiaPaca-2 * PA vs. MiaPaca-2 * control) [9]: 1.60; Mean (MiaPaca-2 * PA) [9]: 8.79; Fold-Change (MiaPaca-2 * PA vs. MiaPaca-2 * control) (gene MMP1, probeset 11741897_a_at, MiaPaca-2): 1.52; Mean (MiaPaca-2 * PA) (gene MMP1, probeset 11741897_a_at, MiaPaca-2, PA-treated): 5.59; Fold-Change (MiaPaca-2 * PA vs. MiaPaca-2 * control) [10]: 1.54; Mean (MiaPaca-2 * PA) [10]: 5.19; Fold-Change (MiaPaca-2 * PA vs. MiaPaca-2 * control) (gene NFKBIA, probeset 11744000_a_at): 1.65; Fold-Change (MiaPaca-2 * PA vs. MiaPaca-2 * control) [11]: 1.67; Mean (MiaPaca-2 * PA) [11]: 11.53; Fold-Change (MiaPaca-2 * PA vs. MiaPaca-2 * control) [12]: 1.56; Mean (MiaPaca-2 * PA) [12]: 11.80; Fold-Change (MiaPaca-2 * PA vs. MiaPaca-2 * control) (gene PABPC1L, probeset 11721609_a_at, MiaPaca-2): 1.51; Mean (MiaPaca-2 * PA) (gene PABPC1L, probeset 11721609_a_at, MiaPaca-2, PA-treated): 9.20; Fold-Change (MiaPaca-2 * PA vs. MiaPaca-2 * control) [13]: 1.57; Mean (MiaPaca-2 * PA) [13]: 8.15; Fold-Change (MiaPaca-2 * PA vs. MiaPaca-2 * control) (gene PHLDB2, probeset 11737041_a_at, MiaPaca-2): 1.50; Mean (MiaPaca-2 * PA) (gene PHLDB2, probeset 11737041_a_at, MiaPaca-2, PA-treated): 11.63; Fold-Change (MiaPaca-2 * PA vs. MiaPaca-2 * control) [14]: 1.55; Mean (MiaPaca-2 * PA) [14]: 5.78; Fold-Change (MiaPaca-2 * PA vs. MiaPaca-2 * control) (gene PNP, probeset 11718400_a_at, MiaPaca-2): 1.50; Mean (MiaPaca-2 * PA) (gene PNP, probeset 11718400_a_at, MiaPaca-2, PA-treated): 10.30; Fold-Change (MiaPaca-2 * PA vs. MiaPaca-2 * control) (gene RBM3, probeset 11760141_s_at, MiaPaca-2): 1.52; Mean (MiaPaca-2 * PA) (gene RBM3, probeset 11760141_s_at, MiaPaca-2, PA-treated): 5.58; Fold-Change (MiaPaca-2 * PA vs. MiaPaca-2 * control) (gene RCAN1, probeset 11763514_x_at, MiaPaca-2): 1.51; Mean (MiaPaca-2 * PA) (gene RCAN1, probeset 11763514_x_at, MiaPaca-2, PA-treated): 7.84; Fold-Change (MiaPaca-2 * PA vs. MiaPaca-2 * control) (gene RPL37A, probeset 11759821_at, MiaPaca-2): 1.51; Mean (MiaPaca-2 * PA) (gene RPL37A, probeset 11759821_at, MiaPaca-2, PA-treated): 7.62; Fold-Change (MiaPaca-2 * PA vs. MiaPaca-2 * control) [15]: 1.59; Mean (MiaPaca-2 * PA) [15]: 5.23; Fold-Change (MiaPaca-2 * PA vs. MiaPaca-2 * control) [16]: 1.56; Mean (MiaPaca-2 * PA) [16]: 10.67; Fold-Change (MiaPaca-2 * PA vs. MiaPaca-2 * control) [17]: 1.61; Mean (MiaPaca-2 * PA) [17]: 10.95; Fold-Change (MiaPaca-2 * PA vs. MiaPaca-2 * control) [18]: 1.53; Mean (MiaPaca-2 * PA) [18]: 8.87; Fold-Change (MiaPaca-2 * PA vs. MiaPaca-2 * control) [19]: 1.54; Mean (MiaPaca-2 * PA) [19]: 7.60; Fold-Change (MiaPaca-2 * PA vs. MiaPaca-2 * control) [20]: 1.55; Mean (MiaPaca-2 * PA) [20]: 8.64; Fold-Change (MiaPaca-2 * PA vs. MiaPaca-2 * control) [21]: 1.56; Mean (MiaPaca-2 * PA) [21]: 8.54; Fold-Change (MiaPaca-2 * PA vs. MiaPaca-2 * control) [22]: 1.58; Mean (MiaPaca-2 * PA) [22]: 8.64; Fold-Change (MiaPaca-2 * PA vs. MiaPaca-2 * control) [23]: 1.53; Mean (MiaPaca-2 * PA) [23]: 7.98; Fold-Change (MiaPaca-2 * PA vs. MiaPaca-2 * control) (gene SLC3A2, probeset 11754529_x_at, MiaPaca-2): 1.52; Mean (MiaPaca-2 * PA) (gene SLC3A2, probeset 11754529_x_at, MiaPaca-2, PA-treated): 9.50; Fold-Change (MiaPaca-2 * PA vs. MiaPaca-2 * control) [24]: 1.58; Mean (MiaPaca-2 * PA) [24]: 5.46; Fold-Change (MiaPaca-2 * PA vs. MiaPaca-2 * control) [25]: 1.55; Mean (MiaPaca-2 * PA) [25]: 6.21; Fold-Change (MiaPaca-2 * PA vs. MiaPaca-2 * control) [26]: 1.55; Mean (MiaPaca-2 * PA) [26]: 9.61; Fold-Change (MiaPaca-2 * PA vs. MiaPaca-2 * control) (gene SMURF2, probeset 11748382_a_at, MiaPaca-2): 1.50; Mean (MiaPaca-2 * PA) (gene SMURF2, probeset 11748382_a_at, MiaPaca-2, PA-treated): 8.51; Fold-Change (MiaPaca-2 * PA vs. MiaPaca-2 * control) (gene SNHG12, probeset 11753858_a_at, MiaPaca-2): 1.50; Mean (MiaPaca-2 * PA) (gene SNHG12, probeset 11753858_a_at, MiaPaca-2, PA-treated): 10.82; Fold-Change (MiaPaca-2 * PA vs. MiaPaca-2 * control) (gene SPRY4, probeset 11736669_s_at, MiaPaca-2): 1.50
